Reference: patent publication US8461083B2, “Herbicidal compounds” (Syngenta Limited, priority 2008, dated 2013)

Columns and labels:
Type in all cases: in vivo
[1] = test system: Amaranthus retoflexus (AMARE); assay: Post-emergence herbicidal glasshouse test; settings: post-emergence (sprayed after 8 days cultivation), evaluated after 13 days, 100=total damage to plant, 0=no damage to plant; for pest or weed control at 1000 g/ha: Amaranthus retroflexus, 312 h, read-out: POST Application AMARE, damage to plant; for POST Application AMARE, damage to plant: 1000 g/ha
How it was run: (§1)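 Spray at 1000 g/ha, acetone/water 50:50 + 0.5% Tween 20; pre-em 1 d post-sowing, post-em 8 d post-sowing. Glasshouse 24/16 °C, 14 h light, 65% RH, watered twice daily. Visual damage score 0–100 at 13 d.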

[2] = test system: Alopecurus myosuroides (ALOMY); assay: Post-emergence herbicidal glasshouse test; settings: post-emergence (sprayed after 8 days cultivation), evaluated after 13 days, 100=total damage to plant, 0=no damage to plant; for pest or weed control at 1000 g/ha: Alopecurus myosuroides, 312 h, read-out: POST Application ALOMY, damage to plant; for POST Application ALOMY, damage to plant: 1000 g/ha
How it was run: as §1

Solanum nigrum (SOLNI) [3] = assay: Post-emergence herbicidal glasshouse test; settings: post-emergence (sprayed after 8 days cultivation), evaluated after 13 days, 100=total damage to plant, 0=no damage to plant; for pest or weed control at 1000 g/ha: Solanum nigrum, 312 h, read-out: POST Application SOLNI, damage to plant; for POST Application SOLNI, damage to plant: 1000 g/ha
How it was run: as §1

[4] = test system: Echinochloa crus-galli (ECHCG); assay: Post-emergence herbicidal glasshouse test; settings: post-emergence (sprayed after 8 days cultivation), evaluated after 13 days, 100=total damage to plant, 0=no damage to plant; for pest or weed control at 1000 g/ha: Echinochloa crus-galli, 312 h, read-out: POST Application ECHCG, damage to plant; for POST Application ECHCG, damage to plant: 1000 g/ha
How it was run: as §1

Setaria faberi (SETFA) [5] = assay: Post-emergence herbicidal glasshouse test; settings: post-emergence (sprayed after 8 days cultivation), evaluated after 13 days, 100=total damage to plant, 0=no damage to plant; for pest or weed control at 1000 g/ha: Setaria faberi, 312 h, read-out: POST Application SETFA, damage to plant; for POST Application SETFA, damage to plant: 1000 g/ha
How it was run: as §1

[6] = test system: Amaranthus retoflexus (AMARE); assay: Pre-emergence herbicidal glasshouse test; settings: pre-emergence (sprayed after one day cultivation), evaluated after 13 days, 100=total damage to plant, 0=no damage to plant; for pest or weed control at 1000 g/ha: Amaranthus retroflexus, 312 h, read-out: PRE Application AMARE, damage to plant; for PRE Application AMARE, damage to plant: 1000 g/ha
How it was run: as §1

[7] = test system: Alopecurus myosuroides (ALOMY); assay: Pre-emergence herbicidal glasshouse test; settings: pre-emergence (sprayed after one day cultivation), evaluated after 13 days, 100=total damage to plant, 0=no damage to plant; for pest or weed control at 1000 g/ha: Alopecurus myosuroides, 312 h, read-out: PRE Application ALOMY, damage to plant; for PRE Application ALOMY, damage to plant: 1000 g/ha
How it was run: as §1

Solanum nigrum (SOLNI) [8] = assay: Pre-emergence herbicidal glasshouse test; settings: pre-emergence (sprayed after one day cultivation), evaluated after 13 days, 100=total damage to plant, 0=no damage to plant; for pest or weed control at 1000 g/ha: Solanum nigrum, 312 h, read-out: PRE Application SOLNI, damage to plant; for PRE Application SOLNI, damage to plant: 1000 g/ha
How it was run: as §1

[9] = test system: Echinochloa crus-galli (ECHCG); assay: Pre-emergence herbicidal glasshouse test; settings: pre-emergence (sprayed after one day cultivation), evaluated after 13 days, 100=total damage to plant, 0=no damage to plant; for pest or weed control at 1000 g/ha: Echinochloa crus-galli, 312 h, read-out: PRE Application ECHCG, damage to plant; for PRE Application ECHCG, damage to plant: 1000 g/ha
How it was run: as §1

Setaria faberi (SETFA) [10] = assay: Pre-emergence herbicidal glasshouse test; settings: pre-emergence (sprayed after one day cultivation), evaluated after 13 days, 100=total damage to plant, 0=no damage to plant; for pest or weed control at 1000 g/ha: Setaria faberi, 312 h, read-out: PRE Application SETFA, damage to plant; for PRE Application SETFA, damage to plant: 1000 g/ha
How it was run: as §1

SMILES | pest or weed control at 1000 g/ha [1] [%] | pest or weed control at 1000 g/ha [2] [%] | pest or weed control at 1000 g/ha (Solanum nigrum (SOLNI) [3]) [%] | pest or weed control at 1000 g/ha [4] [%] | pest or weed control at 1000 g/ha (Setaria faberi (SETFA) [5]) [%] | pest or weed control at 1000 g/ha [6] [%] | pest or weed control at 1000 g/ha [7] [%] | pest or weed control at 1000 g/ha (Solanum nigrum (SOLNI) [8]) [%] | pest or weed control at 1000 g/ha [9] [%] | pest or weed control at 1000 g/ha (Setaria faberi (SETFA) [10]) [%] | POST Application AMARE, damage to plant [1] | POST Application ALOMY, damage to plant [2] | POST Application SOLNI, damage to plant (Solanum nigrum (SOLNI) [3]) | POST Application ECHCG, damage to plant [4] | POST Application SETFA, damage to plant (Setaria faberi (SETFA) [5]) | PRE Application AMARE, damage to plant [6] | PRE Application ALOMY, damage to plant [7] | PRE Application SOLNI, damage to plant (Solanum nigrum (SOLNI) [8]) | PRE Application ECHCG, damage to plant [9] | PRE Application SETFA, damage to plant (Setaria faberi (SETFA) [10])
O=C1CCCC(=O)C1C(=O)c1cc2ccc(O)nc2nc1C(F)(F)F [Compound 1.21, 2-(7-hydroxy-2-trifluoromethyl-[1,8]-naphthyridine-3-carbony)-cyclohexane-1,3-dione] | 100 | 100 | 100 | 100 | 100 | 100 | 80 | 100 | 100 | 100 | – | – | – | – | – | – | – | – | – | –
CCOCCn1c(=O)ccc2cc(C(=O)C3C(=O)CCCC3=O)c(C(F)(F)F)nc21 [Compound 2.16, 2-{8-(2-ethoxyethyl)-7-oxo-7,8-dihydro-2-trifluoromethyl-[1,8]-naphthyridine-3-carbony}-cyclohexane-1,3-dione] | – | – | – | – | – | – | – | – | – | – | 70 | 90 | 90 | 90 | 90 | 90 | 60 | 90 | 90 | 90
C#CCNc1nc2nc(C(F)(F)F)c(C(=O)C3C(=O)CCCC3=O)cc2cc1F [Compound 1.103] | – | – | – | – | – | – | – | – | – | – | 80 | 70 | 90 | 80 | 90 | 80 | 40 | 100 | 100 | 100
CCCCc1nc2nc(C(F)(F)F)c(C(=O)C3C(=O)CCCC3=O)cc2cc1F [Compound 1.86, 2-[7-butyl-6-fluoro-2-trifluoromethyl-[1,8]-naphthyridine-3carbony]-cyclohexane-1,3-dione] | 100 | 70 | 90 | 80 | 90 | 100 | 80 | 100 | 100 | 100 | – | – | – | – | – | – | – | – | – | –
CCc1nc2nc(C(F)(F)F)c(C(=O)C3C(=O)CCCC3=O)cc2cc1F [Compound 1.67, 2-[7-ethyl-6-fluoro-2-trifluoromethyl-[1,8]-naphthyridine-3-carbony]-cyclohexane-1,3-dione] | – | – | – | – | – | – | – | – | – | – | 80 | 90 | 100 | 90 | 90 | 100 | 90 | 100 | 100 | 100
CCCOCCn1c(=O)ccc2cc(C(=O)C3C(=O)CCCC3=O)c(C(F)(F)F)nc21 [Compound 2.17] | – | – | – | – | – | – | – | – | – | – | 90 | 30 | 90 | 80 | 90 | 40 | 10 | 80 | 80 | 50
CC(F)(F)c1ccc2cc(C(=O)C3C(=O)CCCC3=O)c(C(F)(F)F)nc2n1 [Compound 1.36, 2-[7-(1,1-difluoroethyl)-2-trifluoromethyl-[1,8]-naphthyridine-3-carbony]-cyclohexane-1,3-dione] | – | – | – | – | – | – | – | – | – | – | 100 | 90 | 100 | 90 | 90 | 100 | 70 | 100 | 90 | 100
O=C1CCCC(=O)C1C(=O)c1cc2cc(F)c(-c3ccsc3)nc2nc1C(F)(F)F [Compound 1.71] | – | – | – | – | – | – | – | – | – | – | 100 | 30 | 70 | 80 | 80 | 0 | 10 | 70 | 90 | 70
Cc1nc2nc(C(F)(F)Cl)c(C(=O)C3C(=O)CCCC3=O)cc2cc1F [Compound 1.87, 2-(2-chlorodifluoromethyl-6-fluoro-7-methyl-[1,8]-naphthyridine-3-carbonyl)-cyclohexane-1,3-dione] | – | – | – | – | – | – | – | – | – | – | 80 | 70 | 90 | 90 | 80 | 100 | 60 | 100 | 100 | 100
COCCNc1nc2nc(C(F)(F)F)c(C(=O)C3C(=O)CCCC3=O)cc2cc1F [Compound 1.83, 2-[6-fluoro-7-(2-methoxyethylamino)-2-trifluoromethyl-[1,8]-naphthyridine-3-carbony]-cyclohexane-1,3-dione] | – | – | – | – | – | – | – | – | – | – | 80 | 80 | 80 | 80 | 80 | 100 | 60 | 100 | 100 | 100
CC(C)(F)c1ccc2cc(C(=O)C3C(=O)CCCC3=O)c(C(F)(F)F)nc2n1 [Compound 1.37] | – | – | – | – | – | – | – | – | – | – | 100 | 80 | 70 | 90 | 90 | 100 | 80 | 100 | 100 | 100
C=CCn1c(=O)ccc2cc(C(=O)C3C(=O)CCCC3=O)c(C(F)(F)F)nc21 [Compound 2.14, 2-{8-allyl-7-oxo-7,8-dihydro-2-trifluoromethyl-[1,8]-naphthyridine-3-carbony}-cyclohexane-1,3-dione] | – | – | – | – | – | – | – | – | – | – | 70 | 80 | 90 | 90 | 90 | 60 | 40 | 90 | 100 | 80
